SMILES strings stand for the structures.

For 24 compounds, Ki results are on record in ChEMBL document CHEMBL1128948, “Novel thrombin inhibitors that are based on a macrocyclic tripeptide motif” (Bioorg Med Chem Lett, 1996).

The target of the first assay is T1, Prothrombin (Homo sapiens, UniProt P00734). Kind of assay: Compound was evaluated for inhibition of human thrombin at a concentration of 50 uM; Not active.
The Ki is a measure of affinity in units of concentration, obtained from inhibition or displacement. High values mean lower affinity, low ones higher affinity. As to `N=C(N)NCCC[C@H]1NC(=O)[C@H]2CCCN2C(=O)[C@H](CCc2ccccc2)NC(=O)CCCCCCCNC(=O)C1O` (stereo not given in full), the inhibition constant Ki entry was “Not Active”.

The next assay addresses T2, Serine protease 1 (Bos taurus, UniProt P00760).
T2 sequence (P00760 whole entry): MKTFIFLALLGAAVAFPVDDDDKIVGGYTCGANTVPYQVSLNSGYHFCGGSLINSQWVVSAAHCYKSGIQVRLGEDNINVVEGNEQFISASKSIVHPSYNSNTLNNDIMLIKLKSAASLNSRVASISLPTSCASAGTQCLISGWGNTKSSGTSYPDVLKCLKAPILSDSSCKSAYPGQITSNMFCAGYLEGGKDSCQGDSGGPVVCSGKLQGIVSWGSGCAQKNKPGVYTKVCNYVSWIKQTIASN
Kind of assay: Inhibition of bovine trypsin.
In turn, `COC1C[C@@H]2C(=O)N[C@H](CCCN=C(N)N)C(=O)C(=O)NCCCCCCCC(=O)N[C@@H](Cc3ccccc3)C(=O)N2C1` (stereo not given in full) showed a Ki of 13 nM.

Regarding `N=C(N)NCCC[C@@H]1NC(=O)[C@@H]2CCCN2C(=O)[C@@H](Cc2ccccc2)NC(=O)CCCCCCCCCCNC(=O)C1=O` (single isomer, unassigned), affinity was put at a Ki of 25 nM.

The compound `N=C(N)NCCC[C@@H]1NC(=O)[C@@H]2CCCN2C(=O)[C@@H](Cc2ccccc2)NC(=O)CCCCCCCNC(=O)C1=O` (single isomer, unassigned) had a Ki of 10 nM. Compared with the last compound, the Ki is about 2.5-fold lower.

For `N=C(N)NCCC[C@@H]1NC(=O)[C@@H]2CCCN2C(=O)[C@@H](Cc2ccccc2)NC(=O)CCCCCNC(=O)[C@@H](CCc2ccccc2)NC(=O)C1=O` (single isomer, unassigned), the Ki turned out to be 5.2 nM.

The compound `N=C(N)NCCC[C@@H]1NC(=O)[C@@H]2CCCN2C(=O)[C@@H](Cc2ccccc2)NC(=O)CCCCCCCCCNC(=O)C1=O` (single isomer, unassigned) showed a Ki of 2.1 nM. Compared with the last compound, the Ki is about 2.5-fold lower.

On to `N=C(N)NCCC[C@@H]1NC(=O)[C@@H]2CCCN2C(=O)[C@@H](Cc2ccccc2)NC(=O)CCCCCNC(=O)[C@@H](CC(c2ccccc2)c2ccccc2)NC(=O)C1=O` (single isomer, unassigned), for which the Ki stood at 2.5 nM.

`N=C(N)NCCC[C@@H]1NC(=O)[C@@H]2CCCCN2C(=O)[C@@H](Cc2ccccc2)NC(=O)CCCCCCCNC(=O)C1=O` (single isomer, unassigned) showed a Ki of 66 nM.

Turning to `N=C(N)NCCC[C@@H]1NC(=O)[C@@H]2CCCN2C(=O)[C@@H](Cc2ccccc2)NC(=O)CCCCCCNC(=O)C1=O` (single isomer, unassigned), the affinity corresponds to a Ki of 280 nM.

The compound `N=C(N)NCCC[C@@H]1NC(=O)[C@@H]2CCCN2C(=O)[C@@H](c2ccccc2)NC(=O)CCCCCCCNC(=O)C1=O` (single isomer, unassigned) displayed a Ki of 11 nM. Compared with the last compound, the Ki is about 25-fold lower.

`N=C(N)NCCC[C@@H]1NC(=O)[C@@H]2CCCN2C(=O)[C@@H](Cc2ccccc2)NC(=O)CCCCCNC(=O)C1=O` (single isomer, unassigned) had a Ki of 710 nM.

With `N=C(N)NCCC[C@@H]1NC(=O)[C@@H]2CCCN2C(=O)[C@@H](CCc2ccccc2)NC(=O)CCCCCCCNC(=O)C1=O` (single isomer, unassigned), the affinity corresponds to a Ki of 14 nM.

Compound `N=C(N)NCCC[C@@H]1NC(=O)[C@@H]2CCCN2C(=O)[C@@H](NC=O)CNC(=O)/C=C\[C@@H](Cc2ccc(O)cc2)NC(=O)[C@@H](Cc2ccccc2)NC(=O)C1=O` [MACROCYCLIC TRIPEPTIDE MOTIF] came in with a Ki of 1 nM.

The next assay deals with T1, Prothrombin. The assay can be described thus: Inhibition of human thrombin.
The compound `COC1C[C@@H]2C(=O)N[C@H](CCCN=C(N)N)C(=O)C(=O)NCCCCCCCC(=O)N[C@@H](Cc3ccccc3)C(=O)N2C1` (stereo not given in full) displayed a Ki of 159 nM.

As to `N=C(N)NCCC[C@H]1NC(=O)[C@H]2CCCN2C(=O)[C@H](Cc2ccccc2)NC(=O)CCCCCCCCCCNC(=O)C1=O` (single isomer, unassigned), the affinity corresponds to a Ki of 15 nM.

Consider `N=C(N)NCCC[C@H]1NC(=O)[C@H]2CCCN2C(=O)[C@H](Cc2ccccc2)NC(=O)CCCCCCCNC(=O)C1=O` (single isomer, unassigned), for which the affinity corresponds to a Ki of 24 nM.

`N=C(N)NCCC[C@H]1NC(=O)[C@H]2CCCN2C(=O)[C@H](Cc2ccccc2)NC(=O)CCCCCNC(=O)[C@H](CCc2ccccc2)NC(=O)C1=O` (single isomer, unassigned): the Ki was 3.1 nM.

`N=C(N)NCCC[C@H]1NC(=O)[C@H]2CCCN2C(=O)[C@H](Cc2ccccc2)NC(=O)CCCCCCCCCNC(=O)C1=O` (single isomer, unassigned) yielded an inhibitory constant (Ki) of 9.9 nM.

Turning to `N=C(N)NCCC[C@H]1NC(=O)[C@H]2CCCN2C(=O)[C@H](Cc2ccccc2)NC(=O)CCCCCNC(=O)[C@H](CC(c2ccccc2)c2ccccc2)NC(=O)C1=O` (single isomer, unassigned), affinity was put at a Ki of 5.3 nM.

`N=C(N)NCCC[C@H]1NC(=O)[C@H]2CCCCN2C(=O)[C@H](Cc2ccccc2)NC(=O)CCCCCCCNC(=O)C1=O` (single isomer, unassigned) showed a Ki of 86 nM.

In turn, `N=C(N)NCCC[C@H]1NC(=O)[C@H]2CCCN2C(=O)[C@H](Cc2ccccc2)NC(=O)CCCCCCNC(=O)C1=O` (single isomer, unassigned) registered a Ki of 1800 nM.

In turn, `N=C(N)NCCC[C@H]1NC(=O)[C@H]2CCCN2C(=O)[C@H](c2ccccc2)NC(=O)CCCCCCCNC(=O)C1=O` (single isomer, unassigned) had a Ki of 163 nM.

`N=C(N)NCCC[C@H]1NC(=O)[C@H]2CCCN2C(=O)[C@H](Cc2ccccc2)NC(=O)CCCCCNC(=O)C1=O` (single isomer, unassigned): the affinity corresponds to a Ki of 473 nM.

In the case of `N=C(N)NCCC[C@H]1NC(=O)[C@H]2CCCN2C(=O)[C@H](CCc2ccccc2)NC(=O)CCCCCCCNC(=O)C1=O` (single isomer, unassigned), the Ki turned out to be 20 nM.

Consider `N=C(N)NCCC[C@H]1NC(=O)[C@H]2CCCN2C(=O)[C@H](NC=O)CNC(=O)/C=C\[C@@H](Cc2ccc(O)cc2)NC(=O)[C@H](Cc2ccccc2)NC(=O)C1=O` [MACROCYCLIC TRIPEPTIDE MOTIF], for which the Ki came to 4.1 nM.
